These results are taken from the supplement of paper PMC11208160.
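Note: IS621 bridge recombinase in Escherichia coli cells against a fixed T5 target plasmid.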

This series is described as follows: recombinant UMI read abundance after kanamycin selection (control-corrected) (log10(CPM+1)); higher = more efficient recombination; extreme values may be limits of the assay; sequences stand for … in AGTGCAGAGAAAATCGGCCAGTTTTCTCTGCCTGCAGTCCGCATGCCGTGGGACCCCTTGGGTTCTAACCTGTTGCCTAGATTTATGCAGCGGACTGCCTTTCTCCCAAAGTGATAAACCGG…AGGTTGGTTTCACT; site = the 11-nt donor. The gist of the method:
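Pooled Escherichia coli screen of donor and donor-binding-loop pairs for the IS621 bridge recombinase. Each pair sits with a 12-nt UMI on a plasmid carrying a promoterless kanamycin gene. The library was co-electroporated with a target plasmid encoding a fixed target and T7-inducible recombinase, then plated with IPTG (0.07 mM) plus kanamycin, or unselected, each in two replicates. Recombinant UMIs were PCR-amplified across the donor–target junction and sequenced. Counts became CPM, averaged over replicates, scaled by control-derived factors and reported as log10(CPM+1).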
In the case of “CAGGAATCATGGACCGGTTTTCCCGGTAATCCGTATTTGCG (site AAGGAATCTCG)”, the “recombinant UMI read abundance (log10)” value amounted to 1.51.

Regarding “CAGGAATCATGGACCGGTTTTCCCGGTAATCCGTATTTGCG (site CAGGAATCTCG)”, the “recombinant UMI read abundance (log10)” value came out at 3.26.

With “CAGGAATCATGGACCGGTTTTCCCGGTAATCCGTATTTGCG (site GAGGAATCTCG)”, the “recombinant UMI read abundance (log10)” value worked out at 0.395.

Turning to “CAGGAATCATGGACCGGTTTTCCCGGTAATCCGTATTTGCG (site TAGGAATCTCG)”, the “recombinant UMI read abundance (log10)” value is 2.69.

Regarding “CAGGACTCATGGACCGGTTTTCCCGGTAATCCGTATTTGTT (site CAGGACTCTAA)”, the “recombinant UMI read abundance (log10)” value worked out at 2.96.

In the case of “CAGGCATCATGGACCGGTTTTCCCGGTAATCCGTATTTGTC (site CAGGCATCTGA)”, the “recombinant UMI read abundance (log10)” value was found to be 2.76.

In the case of “CAGGCGTCATGGACCGGTTTTCCCGGTAATCCGTATTTGGA (site CAGGCGTCTTC)”, the “recombinant UMI read abundance (log10)” value was determined as 1.89.

Turning to “CAGGGCCCATGGACCGGTTTTCCCGGTAATCCGTATTTGTG (site CAGGGCCCTCA)”, the “recombinant UMI read abundance (log10)” value stood at 0.282.

On to “CAGGGTGCATGGACCGGTTTTCCCGGTAATCCGTATTTGGT (site CAGGGTGCTAC)”, for which the “recombinant UMI read abundance (log10)” value worked out at 1.49.

Consider “CAGTACACATGGACCGGTTTTCCCGGTAATCCGTATTTGCT (site CAGTACACTAG)”, for which the “recombinant UMI read abundance (log10)” value amounted to 2.43.

As to “CAGTCAACATGGACCGGTTTTCCCGGTAATCCGTATTTGTG (site CAGTCAACTCA)”, the “recombinant UMI read abundance (log10)” value amounted to 0.0625.

For the sequence “CAGTCGACATGGACCGGTTTTCCCGGTAATCCGTATTTGCG (site CAGTCGACTCA)”, the “recombinant UMI read abundance (log10)” value worked out at 0.

On to “CAGTCGACATGGACCGGTTTTCCCGGTAATCCGTATTTGCG (site CAGTCGACTCC)”, for which the “recombinant UMI read abundance (log10)” value was determined as 0.

As to “CAGTCGACATGGACCGGTTTTCCCGGTAATCCGTATTTGCG (site CAGTCGACTCG)”, the “recombinant UMI read abundance (log10)” value amounted to 0.869.

Consider “CAGTCGACATGGACCGGTTTTCCCGGTAATCCGTATTTGCG (site CAGTCGACTCT)”, for which the “recombinant UMI read abundance (log10)” value stood at 0.00924.

For “CAGTCGACATGGACCGGTTTTCCCGGTAATCCGTATTTGGC (site CAGTCGACTAC)”, the “recombinant UMI read abundance (log10)” value is 0.105.

In the case of “CAGTCGACATGGACCGGTTTTCCCGGTAATCCGTATTTGGC (site CAGTCGACTCC)”, the “recombinant UMI read abundance (log10)” value turned out to be 0.00601.

In the case of “CAGTCGACATGGACCGGTTTTCCCGGTAATCCGTATTTGGC (site CAGTCGACTGC)”, the “recombinant UMI read abundance (log10)” value came to 1.37.

For “CAGTCGACATGGACCGGTTTTCCCGGTAATCCGTATTTGGC (site CAGTCGACTTC)”, the “recombinant UMI read abundance (log10)” value is 0.0416.

Take “CAGTCGCCATGGACCGGTTTTCCCGGTAATCCGTATTTGGG (site CAGTCGACTCC)”: the “recombinant UMI read abundance (log10)” value stood at 0.0111.

For the sequence “CAGTCGCCATGGACCGGTTTTCCCGGTAATCCGTATTTGGG (site CAGTCGCCTCC)”, the “recombinant UMI read abundance (log10)” value turned out to be 0.0028.

In the case of “CAGTCGCCATGGACCGGTTTTCCCGGTAATCCGTATTTGGG (site CAGTCGGCTCC)”, the “recombinant UMI read abundance (log10)” value is 0.0208.

As for “CAGTCGCCATGGACCGGTTTTCCCGGTAATCCGTATTTGGG (site CAGTCGTCTCC)”, the “recombinant UMI read abundance (log10)” value was 0.

In the case of “CAGTCGGCATGGACCGGTTTTCCCGGTAATCCGTATTTGCT (site CAGTCGGCTAG)”, the “recombinant UMI read abundance (log10)” value turned out to be 0.438.

For the sequence “CAGTGGACATGGACCGGTTTTCCCGGTAATCCGTATTTGTG (site CAGTGGACTCA)”, the “recombinant UMI read abundance (log10)” value worked out at 1.57.

“CAGTTTACATGGACCGGTTTTCCCGGTAATCCGTATTTGCT (site CAGTTTACTAG)”: the “recombinant UMI read abundance (log10)” value was 2.07.

Consider “CAGTTTACATGGACCGGTTTTCCCGGTAATCCGTATTTGCT (site CCGTTTACTAG)”, for which the “recombinant UMI read abundance (log10)” value came to 0.978.

Consider “CAGTTTACATGGACCGGTTTTCCCGGTAATCCGTATTTGCT (site CGGTTTACTAG)”, for which the “recombinant UMI read abundance (log10)” value is 0.

For the sequence “CAGTTTACATGGACCGGTTTTCCCGGTAATCCGTATTTGCT (site CTGTTTACTAG)”, the “recombinant UMI read abundance (log10)” value is 0.662.

Take “CATACACCATGGACCGGTTTTCCCGGTAATCCGTATTTGTA (site CATACACCTTA)”: the “recombinant UMI read abundance (log10)” value is 0.00749.

On to “CATACAGCATGGACCGGTTTTCCCGGTAATCCGTATTTGTG (site CATACAGCTCA)”, for which the “recombinant UMI read abundance (log10)” value was found to be 1.18.

Consider “CATAGCGCATGGACCGGTTTTCCCGGTAATCCGTATTTGTC (site CATAGCGCTGA)”, for which the “recombinant UMI read abundance (log10)” value stood at 2.99.

Turning to “CATAGTCCATGGACCGGTTTTCCCGGTAATCCGTATTTGAA (site CATAGTCCTTT)”, the “recombinant UMI read abundance (log10)” value was found to be 0.981.

“CATCAGTCATGGACCGGTTTTCCCGGTAATCCGTATTTGGT (site CATCAGTCTAC)”: the “recombinant UMI read abundance (log10)” value amounted to 2.17.

Consider “CATCCATCATGGACCGGTTTTCCCGGTAATCCGTATTTGGG (site CATCCATCTCC)”, for which the “recombinant UMI read abundance (log10)” value turned out to be 0.0148.

As to “CATCCCTCATGGACCGGTTTTCCCGGTAATCCGTATTTGTA (site CATCCCTCTTA)”, the “recombinant UMI read abundance (log10)” value is 3.33.

As for “CATCGTACATGGACCGGTTTTCCCGGTAATCCGTATTTGGT (site AGAGTGGCTTA)”, the “recombinant UMI read abundance (log10)” value worked out at 0.00765.

Regarding “CATCTGTCATGGACCGGTTTTCCCGGTAATCCGTATTTGGG (site CATCTGTCTCC)”, the “recombinant UMI read abundance (log10)” value was found to be 0.559.

On to “CATGACTCATGGACCGGTTTTCCCGGTAATCCGTATTTGTC (site CATGACTCTGA)”, for which the “recombinant UMI read abundance (log10)” value worked out at 1.71.

With “CATGCACCATGGACCGGTTTTCCCGGTAATCCGTATTTGAC (site CATGCACCTGT)”, the “recombinant UMI read abundance (log10)” value was found to be 0.

Consider “CATGCAGCATGGACCGGTTTTCCCGGTAATCCGTATTTGCT (site CAAGCAGCTAG)”, for which the “recombinant UMI read abundance (log10)” value is 0.856.

“CATGCAGCATGGACCGGTTTTCCCGGTAATCCGTATTTGCT (site CACGCAGCTAG)”: the “recombinant UMI read abundance (log10)” value is 1.29.

Take “CATGCAGCATGGACCGGTTTTCCCGGTAATCCGTATTTGCT (site CAGGCAGCTAG)”: the “recombinant UMI read abundance (log10)” value amounted to 0.00853.

As to “CATGCAGCATGGACCGGTTTTCCCGGTAATCCGTATTTGCT (site CATGCAGCTAG)”, the “recombinant UMI read abundance (log10)” value stood at 1.97.

Regarding “CATGCATCATGGACCGGTTTTCCCGGTAATCCGTATTTGCT (site CATGCATCTAG)”, the “recombinant UMI read abundance (log10)” value was 1.49.

In the case of “CATGGATCATGGACCGGTTTTCCCGGTAATCCGTATTTGGA (site CATGGATCTTC)”, the “recombinant UMI read abundance (log10)” value was 2.32.

In the case of “CATGTGACATGGACCGGTTTTCCCGGTAATCCGTATTTGAT (site CATGTGACTAT)”, the “recombinant UMI read abundance (log10)” value was 2.03.

For “CATTATCCATGGACCGGTTTTCCCGGTAATCCGTATTTGCT (site AATTATCCTAG)”, the “recombinant UMI read abundance (log10)” value amounted to 0.352.

Turning to “CATTATCCATGGACCGGTTTTCCCGGTAATCCGTATTTGCT (site CATTATCCTAG)”, the “recombinant UMI read abundance (log10)” value was found to be 1.59.

With “CATTATCCATGGACCGGTTTTCCCGGTAATCCGTATTTGCT (site GATTATCCTAG)”, the “recombinant UMI read abundance (log10)” value is 0.

For the sequence “CATTATCCATGGACCGGTTTTCCCGGTAATCCGTATTTGCT (site TATTATCCTAG)”, the “recombinant UMI read abundance (log10)” value worked out at 0.

“CATTCGCCATGGACCGGTTTTCCCGGTAATCCGTATTTGAA (site CATTCGCCTTT)”: the “recombinant UMI read abundance (log10)” value was 0.0116.
